Structures can show the parent of a compound that is named as a salt. Where two headings read alike, the source gives them in different places.
Assays:
[1] = target: Chk-1 kinase (Homo sapiens (Human), UniProt O14757); assay: Chk-1 Kinase Inhibiting Activity (33P-ATP filter assay, CHKtide substrate); assay type: biochemical
In short: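 Full-length N-terminal GST-tagged human Chk-1 from insect cells, 0.5 nM final, with 20 μM peptide substrate and 33P-ATP in HEPES pH 7.5 buffer with 1% DMSO. Reaction ran 120 minutes at room temperature; incorporated radioactivity captured on P81 filters and counted for IC50.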

[2] = test system: MIA PaCa-2 cells; assay: Gemcitabine Combination Cell Assay (Cell Titer Glo); assay type: cell-based; conditions: for 10xLS: approximate concentration of Chk1 inhibitor that results in a 10-fold reduction in the IC50 of gemcitabine alone; for 2xLS: approximate concentration of Chk1 inhibitor that results in a two-fold reduction in the IC50 of gemcitabine alone
In short: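 MIA PaCa-2 cells were treated 72 h with half-log dilutions of Chk1 inhibitor (top 3000 nM) and gemcitabine (top 100 nM), alone and in full matrix; viability by CellTiter-Glo luminescence. IC50s from four-parameter fit; Chk1 inhibitor concentrations giving two- and ten-fold lowering of gemcitabine IC50 were estimated.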

[3] = against Chk-1 kinase, read-out: IC50
[4] = Homo sapiens, Chk1 inhibitor alone, MIA PaCa-2 cells, 72 h, read-out: Chk1 IC50
[5] = Homo sapiens, MIA PaCa-2, 72 h, read-out: Chk1 IC50 (nM)

Sequence of Chk-1 kinase (O14757 whole entry): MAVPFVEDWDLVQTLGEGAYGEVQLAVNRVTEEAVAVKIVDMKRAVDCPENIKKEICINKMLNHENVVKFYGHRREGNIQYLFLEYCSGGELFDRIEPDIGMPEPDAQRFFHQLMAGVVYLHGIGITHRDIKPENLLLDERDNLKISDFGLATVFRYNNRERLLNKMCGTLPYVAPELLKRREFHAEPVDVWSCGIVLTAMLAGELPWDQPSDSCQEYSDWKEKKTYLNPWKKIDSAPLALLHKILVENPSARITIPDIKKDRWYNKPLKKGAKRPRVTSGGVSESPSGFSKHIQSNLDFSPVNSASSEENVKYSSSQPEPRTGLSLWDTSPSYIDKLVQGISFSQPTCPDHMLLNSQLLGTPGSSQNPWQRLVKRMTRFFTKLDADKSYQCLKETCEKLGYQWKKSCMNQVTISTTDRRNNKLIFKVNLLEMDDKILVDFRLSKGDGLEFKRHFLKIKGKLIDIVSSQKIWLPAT

| SMILES | IC50 [1, 3] | IC50 [2, 4] | 10xLS ([2]; MIA PaCa-2 cells, 72 h) | 2xLS ([2]; MIA PaCa-2 cells, 72 h) | IC50 [2, 5] | IC50 ([2]; Chk1 inhibitor alone, MIA PaCa-2 cells, 72 h, read-out: Chk1 IC50) | IC50 [1] |
| --- | --- | --- | --- | --- | --- | --- | --- |
| COc1cc(C2CCN(C)CC2)ccc1-c1cc(Nc2cnc(Cl)cn2)n[nH]1 [Example 44, 5-chloro-N-[5-[2-methoxy-4-(1-methyl-4-piperidyl)phenyl]-1H-pyrazol-3-yl]pyrazin-2-amine] | 0.69 nM | 1260 nM | 1000 nM | 100 nM |  |  |  |
| COc1cc(C2CCN(C)CC2)c(F)cc1-c1cc(Nc2cnc(C#N)cn2)n[nH]1 [Example 32, 5-[[5-[5-fluoro-2-methoxy-4-(1-methyl-4-piperidyl)phenyl]-1H-pyrazol-3-yl]amino]pyrazine-2-carbonitrile] | 0.26 nM | 784 nM | 300 nM | 30 nM |  |  |  |
| CN1CCC(c2ccc(-c3cc(Nc4cnc(C#N)cn4)n[nH]3)c(F)c2)CC1 [Example 21, 5-[[5-[2-fluoro-4-(1-methyl-4-piperidyl)phenyl]-1H-pyrazol-3-yl]amino]pyrazine-2-carbonitrile] | 2.4 nM | 3180 nM | 1000 nM | 100 nM |  |  |  |
| COc1cc(NCc2ccccc2)cc(OC)c1-c1cc(Nc2cnc(C#N)cn2)n[nH]1 [Example 1, 5-[5-(4-Benzylamino-2,6-dimethoxy-phenyl)-1H-pyrazol-3-ylamino]-pyrazine-2-carbonitrile] | 2.8 nM | 5390 nM | 1000 nM | 100 nM |  |  |  |
| COc1cc(C2CCN(C)CC2)ccc1-c1cc(Nc2cnc(C#N)cn2)n[nH]1 [Example 11, 5-{5-[2-Methoxy-4-(1-methyl-piperidin-4-yl)-phenyl]-1H-pyrazol-3-ylamino}-pyrazine-2-carbonitrile hydrochloride] | 0.048 nM |  | <100 nM | 3 nM | 214 nM |  |  |
| CCN1CCC(OCc2ccc(-c3cc(Nc4cnc(C#N)cn4)n[nH]3)c(OC)c2)CC1 [Example 114, 5-[[5-[4-[(1-ethyl-4-piperidyl)oxymethyl]-2-methoxy-phenyl]-1H-pyrazol-3-yl]amino]pyrazine-2-carbonitrile] | 0.2 nM |  | <300 nM | 3 nM |  | 469 nM |  |
| COc1c(-c2cc(Nc3cnc(C#N)cn3)n[nH]2)ccc(C2CCNCC2)c1Cl [Example 70, 5-[[5-[3-chloro-2-methoxy-4-(4-piperidyl)phenyl]-1H-pyrazol-3-yl]amino]pyrazine-2-carbonitrile] | 10 nM | 2620 nM | 3000 nM | 300 nM |  |  |  |
| CCN1CCC(c2ccc(-c3cc(Nc4cnc(C#N)cn4)n[nH]3)c(OC)c2)C(F)C1 (centres unmarked) [Example 87, 5-[[5-[4-(1-ethyl-3-fluoro-4-piperidyl)-2-methoxy-phenyl]-1H-pyrazol-3-yl]amino]pyrazine-2-carbonitrile hydrochloride] | 0.059 nM |  | 300 nM | 10 nM | 540 nM |  |  |
| N#Cc1cnc(Nc2cc(-c3ccc(C4CCNCC4)cc3F)[nH]n2)cn1 [Example 51, 5-[[5-[2-fluoro-4-(4-piperidyl)phenyl]-1H-pyrazol-3-yl]amino]pyrazine-2-carbonitrile] | 6.3 nM | > 3000 nM | 3000 nM | 300 nM |  |  |  |
| COc1cc(CNc2ccccn2)ccc1-c1cc(Nc2cnc(C#N)cn2)n[nH]1 [Example 31, 5-[[5-[2-methoxy-4-[(2-pyridylamino)methyl]phenyl]-1H-pyrazol-3-yl]amino]pyrazine-2-carbonitrile] | 0.37 nM | 838 nM | 100 nM | 3 nM |  |  |  |
| COc1cc(CNC(C)(C)CN2CCOCC2)ccc1-c1cc(Nc2cnc(C#N)cn2)n[nH]1 [Example 19, 5-[[5-[4-[[(1,1-dimethyl-2-morpholino-ethyl)amino]methyl]-2-methoxy-phenyl]-1H-pyrazol-3-yl]amino]pyrazine-2-carbonitrile] | 0.29 nM | 1610 nM | ~200 nM | 3 nM |  |  |  |
| COc1cc(NCC2CCN(C)CC2)ccc1-c1cc(Nc2cnc(C#N)cn2)n[nH]1 [Example 107, 5-[[5-[2-Methoxy-4-[(1-methyl-4-piperidyl)methylamino]phenyl]-1H-pyrazol-3-yl]amino]pyrazine-2-carbonitrile hydrochloride] | 0.081 nM |  | 100 nM | 3 nM | 160 nM |  |  |
| COc1cc(N2CCNCC2)ccc1-c1cc(Nc2cnc(C#N)cn2)n[nH]1 [Example 46, 5-[[5-(2-methoxy-4-piperazin-1-yl-phenyl)-1H-pyrazol-3-yl]amino]pyrazine-2-carbonitrile] |  | 442 nM | <30 nM | <3 nM |  |  | 0.054 nM |
| CCN1CCC(Cc2ccc(-c3cc(Nc4cnc(C#N)cn4)n[nH]3)c(OC)c2)CC1 [Example 143, 5-[[5-[4-[(1-Ethyl-4-piperidyl)methyl]-2-methoxy-phenyl]-1H-pyrazol-3-yl]amino]pyrazine-2-carbonitrile hydrochloride] | 0.021 nM |  | <300 nM | <10 nM | 820 nM |  |  |

More lines, in order of falling IC50 [1, 3], values ahead:

| IC50 [1, 3] | IC50 [2, 4] | SMILES | 10xLS ([2]; MIA PaCa-2 cells, 72 h) | 2xLS ([2]; MIA PaCa-2 cells, 72 h) | IC50 [2, 5] | IC50 ([2]; Chk1 inhibitor alone, MIA PaCa-2 cells, 72 h, read-out: Chk1 IC50) | IC50 [1] |
| --- | --- | --- | --- | --- | --- | --- | --- |
| 0.21 nM | 73 nM | COc1cc(O[C@H]2CCN(C)C2)ccc1-c1cc(Nc2cnc(C#N)cn2)n[nH]1 [Example 42, 5-[[5-[2-methoxy-4-[(3S)-1-methylpyrrolidin-3-yl]oxy-phenyl]-1H-pyrazol-3-yl]amino]pyrazine-2-carbonitrile] | <30 nM | <3 nM |  |  |  |
| 0.18 nM | 168 nM | COc1cc(C2CCCNC2)ccc1-c1cc(Nc2cnc(C#N)cn2)n[nH]1 (centres unmarked) [Example 39, 5-[[5-[2-methoxy-4-(3-piperidyl)phenyl]-1H-pyrazol-3-yl]amino]pyrazine-2-carbonitrile] | 30 nM | <3 nM |  |  |  |
| 0.15 nM | 177 nM | COc1cc(N2CCNCC2)cc(OC)c1-c1cc(Nc2cnc(C#N)cn2)n[nH]1 [Example 121, 5-[[5-(2,6-dimethoxy-4-piperazin-1-yl-phenyl)-1H-pyrazol-3-yl]amino]pyrazine-2-carbonitrile] | <100 nM | 3 nM |  |  |  |
| 0.14 nM | 164 nM | COc1cc(C2(F)CNC2)ccc1-c1cc(Nc2cnc(C#N)cn2)n[nH]1 [Example 77, 5-[[5-[4-(3-fluoroazetidin-3-yl)-2-methoxy-phenyl]-1H-pyrazol-3-yl]amino]pyrazine-2-carbonitrile] | <100 nM | <3 nM |  |  |  |
| 0.085 nM | 1800 nM | COc1cc(NCCN2CCOCC2)ccc1-c1cc(Nc2cnc(C#N)cn2)n[nH]1 [Example 16, 5-[[5-[2-methoxy-4-(2-morpholinoethylamino)phenyl]-1H-pyrazol-3-yl]amino]pyrazine-2-carbonitrile] | 100 nM | <3 nM |  |  |  |
| 0.077 nM | 227 nM | COc1cc(CNCCN2CCOCC2)ccc1-c1cc(Nc2cnc(C#N)cn2)n[nH]1 [Example 9, 5-(5-{2-methoxy-4-[(2-morpholin-4-yl-ethylamino)-methyl]-phenyl}-1H-pyrazol-3-ylamino)-pyrazine-2-carbonitrile] | 100 nM | 3 nM |  |  |  |
| 0.071 nM | 263 nM | COc1cc(CNC(C)C)ccc1-c1cc(Nc2cnc(C#N)cn2)n[nH]1 [Example 59, 5-[[5-[4-[(isopropylamino)methyl]-2-methoxy-phenyl]-1H-pyrazol-3-yl]amino]pyrazine-2-carbonitrile] | 100 nM | 3 nM |  |  |  |
| 0.048 nM | 256 nM | COc1cc(N2CCN(C(C)C)CC2)cc(F)c1-c1cc(Nc2cnc(C#N)cn2)n[nH]1 [Example 137, 5-[[5-[4-(4-isopropylpiperazin-1-yl)-2-fluoro-6-methoxy-phenyl]-1H-pyrazol-3-yl]amino]pyrazine-2-carbonitrile] | <100 nM | <3 nM |  |  |  |
| 0.022 nM | 144 nM | COc1cc(C2CN(C)C2)ccc1-c1cc(Nc2cnc(C#N)cn2)n[nH]1 [Example 65, 5-[[5-[2-methoxy-4-(1-methylazetidin-3-yl)phenyl]-1H-pyrazol-3-yl]amino]pyrazine-2-carbonitrile] | <100 nM | 3 nM |  |  |  |
| 0.016 nM | 99 nM | CCN1CCN(c2ccc(-c3cc(Nc4cnc(C#N)cn4)n[nH]3)c(OC)c2)C[C@H]1C [Example 93, 5-[[5-[4-[(3R)-4-ethyl-3-methyl-piperazin-1-yl]-2-methoxy-phenyl]-1H-pyrazol-3-yl]amino]pyrazine-2-carbonitrile] | <30 nM | <3 nM |  |  |  |
| 0.0069 nM | 192 nM | COc1cc(NC2CCN(C)CC2)ccc1-c1cc(Nc2cnc(C#N)cn2)n[nH]1 [Example 110, 5-[[5-[2-methoxy-4-[(1-methyl-4-piperidyl)amino]phenyl]-1H-pyrazol-3-yl]amino]pyrazine-2-carbonitrile] | 100 nM | 3 nM |  |  |  |
| 0.0052 nM | 184 nM | CCN1CCC(Nc2ccc(-c3cc(Nc4cnc(C#N)cn4)n[nH]3)c(OC)c2)CC1 [Example 111, 5-[[5-[4-[(1-ethyl-4-piperidyl)amino]-2-methoxy-phenyl]-1H-pyrazol-3-yl]amino]pyrazine-2-carbonitrile] | 100 nM | <3 nM |  |  |  |
